Results reported in patent US20250179057A1, “MEK IMMUNE ONCOLOGY INHIBITORS AND THERAPEUTIC USES THEREOF” (Immuneering Corporation, priority 2022, published 2025).
Values after ≈ are worked out from the molar mass of the structure shown. Structures can show the parent of a compound that is named as a salt. Where two headings read alike, the source gives them in different places.

Experiments:
[1] = Kinetic solubility (PBS pH 7.4; 4 hr); assay type: physicochemical
Description: The plates were shaken for 4 h at room temperature in an Eppendorf Thermomixer. After incubation, the plates were centrifuged for 20 minutes at 4680 rpm. From the supernatant, 150 μL was transferred to a new 96 well plate and 50 μL DMSO was added to ensure continued dissolution. Samples were measured on LC-UV at injection volumes of 1 and 8 μL. Peak areas were determined and compared to peak areas obtained using calibration curves of the test compounds in DMSO.

[2] = Mouse pharmacokinetics (oral cassette dosing), plasma; assay type: in vivo; details: BALB/c immunocompetent mice, 5 mg/kg p.o.
Description: Female mice (BALC/c) received a single dose (3 mice/treatment) of vehicle (10% 1N HCl:90% [20% […]) and at 0.5, 1, 2, 4, 8, 12 and 24-hour post dose humanely euthanized.
Blood was obtained through cardiac puncture into K+EDTA tubes, mixed by inversion and centrifuged to obtain the plasma. Blood will be kept on ice or at approximately 4° C. prior. Centrifugation will take place within 30 minutes of blood collection affording plasma samples. Plasma samples will be frozen as soon as possible after centrifugation and stored at −80° C. until analysis. All samples will be analysed by means of LC-MS/MS. Method development for bioanalysis will be performed by pharmacokinetics Department of Crown Bioscience (Taicang) Inc. using LC-MS/MS analysis (using Waters HSS T3 2.1×50 mm (1.8 um) LC column, and an API-4000 Electrospray MS unit). The results of a kinetic solubility (free base) study are represented in Table 19.

[3] = Hepatocyte stability, wistar hannover rat; assay type: in vitro ADME; details: 0.5 million cells/ml; for CLint scaled at 2 μM: Wistar Hannover, rat, hepatocytes; for half-life at 2 μM: wistar hannover rat hepatocytes
Description: In this study, human, cynomolgus monkey, beagle dog, wistar hannover rat, and balb/c mouse hepatocyle stability was determined.

CYP2B6 = target: T1, CYP2B6 (Homo sapiens, UniProt P20813); assay: in vitro; details: microsomes, pH 7.4
T1 sequence (P20813 1-491): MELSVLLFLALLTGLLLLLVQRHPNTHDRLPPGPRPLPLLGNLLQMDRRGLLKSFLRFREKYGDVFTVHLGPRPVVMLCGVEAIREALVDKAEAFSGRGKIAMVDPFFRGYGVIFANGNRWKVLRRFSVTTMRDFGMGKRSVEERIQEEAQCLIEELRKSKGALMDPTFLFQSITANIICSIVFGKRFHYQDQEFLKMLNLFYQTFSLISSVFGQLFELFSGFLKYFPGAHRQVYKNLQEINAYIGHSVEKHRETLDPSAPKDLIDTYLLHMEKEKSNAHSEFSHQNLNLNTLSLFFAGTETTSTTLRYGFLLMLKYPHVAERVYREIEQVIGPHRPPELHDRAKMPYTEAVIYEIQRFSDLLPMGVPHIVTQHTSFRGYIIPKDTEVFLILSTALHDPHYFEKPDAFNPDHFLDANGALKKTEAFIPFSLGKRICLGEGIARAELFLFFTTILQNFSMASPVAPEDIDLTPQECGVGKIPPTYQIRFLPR

CYP2C8 = target: T2, CYP2C8 (Homo sapiens, UniProt P10632); assay: in vitro; details: microsomes, pH 7.4
T2 sequence (P10632 1-490): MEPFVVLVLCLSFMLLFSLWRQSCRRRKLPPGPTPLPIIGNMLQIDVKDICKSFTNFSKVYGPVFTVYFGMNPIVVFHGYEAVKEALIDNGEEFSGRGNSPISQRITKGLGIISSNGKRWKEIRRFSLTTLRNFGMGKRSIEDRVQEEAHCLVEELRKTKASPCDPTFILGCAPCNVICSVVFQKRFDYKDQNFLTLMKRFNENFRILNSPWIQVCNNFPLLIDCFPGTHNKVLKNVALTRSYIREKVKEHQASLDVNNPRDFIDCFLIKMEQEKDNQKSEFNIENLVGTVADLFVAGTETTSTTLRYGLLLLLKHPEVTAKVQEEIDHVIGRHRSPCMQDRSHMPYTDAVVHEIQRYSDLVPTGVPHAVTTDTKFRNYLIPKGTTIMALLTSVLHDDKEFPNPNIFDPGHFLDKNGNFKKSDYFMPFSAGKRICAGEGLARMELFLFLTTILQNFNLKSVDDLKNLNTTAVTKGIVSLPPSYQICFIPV

CYP2C19 = CYP2C19 (Homo sapiens, UniProt P33261); assay: in vitro; details: microsomes, pH 7.4
CYP2C19, sequence (P33261 whole entry): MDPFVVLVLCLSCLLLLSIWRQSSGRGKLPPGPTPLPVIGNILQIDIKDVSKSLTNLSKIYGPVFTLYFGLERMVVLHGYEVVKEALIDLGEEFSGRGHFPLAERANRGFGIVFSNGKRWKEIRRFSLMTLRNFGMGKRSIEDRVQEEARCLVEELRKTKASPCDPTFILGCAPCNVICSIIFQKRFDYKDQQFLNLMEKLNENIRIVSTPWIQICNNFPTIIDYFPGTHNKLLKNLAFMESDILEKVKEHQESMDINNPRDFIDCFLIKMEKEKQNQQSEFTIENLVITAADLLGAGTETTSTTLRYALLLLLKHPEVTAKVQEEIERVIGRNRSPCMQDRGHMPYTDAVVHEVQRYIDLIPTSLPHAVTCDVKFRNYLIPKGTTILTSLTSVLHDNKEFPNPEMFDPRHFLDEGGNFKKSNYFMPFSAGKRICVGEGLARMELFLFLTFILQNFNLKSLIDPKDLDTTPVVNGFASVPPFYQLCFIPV

[4] = Caco-2 bidirectional permeability (absorption & efflux); details: human
[5] = system: phospho-ERK in A375 cells; assay: Cell-based pERK (pERK:tERK) in A375 cells
Description: Materials and Methods: A549 or A375 cells were seeded in 6-well plates at an appropriate seeding density on day 0. On day 2 or 3, after checking the health and confluency of cells, the media was aspirated and replaced with 1 mL media containing a predetermined concentration of compound and incubated for 2 hours. After 2 hours, the media was aspirated, and the cells washed 2 times with cold PBS. Cells were lysed on ice, with 50 uL 1×CST lysis buffer +1 mM PMSF for 5 minutes. After 5 minutes, cells were removed using a scraper and transferred to cold 1.5 mL tubes, and centrifuged for 10 min, 4° C., 14,000×g. Supernatant was gently removed and snap frozen in liquid nitrogen. Protein concentration of the lysate was determined using Bradford Reagent (analyzed using SpectraMax M2E) and diluted to 1 mg/mL or pERK or 1.5 mg/mL for pMEK analysis. […] All dilutions were in Milk-free antibody diluent.
A549 or […] cells were treated in duplicate for two hours with compounds at varying concentrations. After two hours, the cells were lysed, snap frozen, and stored at −80° C. After storage, the lysate was quantified with the Bradford assay. Before the lysates were prepared to run on the Jess, the lysates were diluted to 1 mg/mL for pERK analysis and 1.5 mg/mL pMEK analysis using quantitative Western blotting. ERK and MEK phosphorylation levels were estimated by taking the ratio of phospho-protein to total protein and normalizing to the DMSO control.
The nine models are described in Table 16.

[6] = system: phospho-MEK in A549 cells; assay: Cell-based pMEK (pMEK:tMEK, CRAF bypass) in A549 cells; details: for A549-CRAF BP 100 nM, 2 h: pMEK to total MEK normalized to DMSO control
Summary of the method: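 Cells (A549 or A375) exposed 2 h to compounds at varying concentrations in duplicate, then lysed; lysates set to 1.5 mg/mL for pMEK by quantitative Western (Jess). Phospho-MEK/total MEK ratio normalized to DMSO control.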

[7] = Human liver microsome stability (t1/2, Clint)
[8] = PBS buffer, pH 7.4, aqueous buffer, kinetic from dmso stock, free base (Table 19), read-out: Kinetic Solubility
[9] = female, mouse, read-out: AUC0-t
[10] = read-out: CLint (L/hr/kg) (converted)
[11] = free base (Table 19), read-out: Kinetic Solubility
[12] = 1 μM, 0.5 mg/ml microsomal protein
[13] = human, liver microsomes, pH 7.4

| Compound | solubility kinetic at 4 h [1, 8] [µM] | AUC(0-t) [2, 9] [ng·h/mL] | Cmax ([2]; female, mouse, read-out: Cmax) [ng/mL] | Tmax ([2]; female, mouse, read-out: Tmax) [h] | CLint scaled at 2 μM [3, 10] [L/h/kg] | CLint scaled at 2 μM ([3]; read-out: CLint (mL/min/kg)) [L/h/kg] | half-life at 2 μM [3] [h] | inhibition at 30 min, 10 µM (CYP2B6) [%] | inhibition at 30 min, 10 µM (CYP2C8) [%] | inhibition at 30 min, 10 µM (CYP2C19) [%] | Papp A→B at 2 h, 10 μM [4] [×10⁻⁶ cm/s] | Papp B→A at 2 h, 10 μM [4] [×10⁻⁶ cm/s] | efflux ratio at 2 h, 10 μM [4] | A549-CRAF BP 100 nM, 2 h [6] | CRAF A549 pMEK:tMEK [100 nM; 2 hr] [6] | solubility kinetic at 4 h [1, 11] [µM] | AUC0-∞ [2] [ng·h/mL] | AUC(0-t) [2] [ng·h/mL] | Cmax [2] [ng/mL] | T1/2 [2] [h] | also measured |
| --- | --- | --- | --- | --- | --- | --- | --- | --- | --- | --- | --- | --- | --- | --- | --- | --- | --- | --- | --- | --- | --- |
| CNS(=O)(=O)Nc1cccc(Cc2c(CN3CCNCC3)c3cc(Cl)c(OC(=O)N(C)C)cc3oc2=O)c1Cl [Compound 256, 6-chloro-3-(2-chloro-3-((N-methylsulfamoyl)amino)benzyl)-2-oxo-4-(piperazin-1-ylmethyl)-2H-chromen-7-yl dimethylcarbamate hydrochloride] | > 80 | 19.5 | 8.3 | 0.5 | 2.12 | 2.12 | 1.75 | 1.9 | 97 | 40.8 | 3.59 | 13.4 | 3.73 | – | – | – | – | – | – | – | AUC(0-inf) ([2]; female, mouse): 28.3 ng·h/mL |
| CNS(=O)(=O)Nc1cccc(Cc2c(CN(C)C)c3ccc(OC(=O)N(C)C)cc3oc2=O)c1F [Compound 9] | – | – | – | – | – | – | – | – | – | – | – | – | – | 44.9 (mean, n = 8) | 0.47 | >80 | 445 | 441 | 725 | 1.1 | A375 pERK:tERK ratio [10 nM; 2 hr] [5]: 0.71; Kinetic Solubility (PBS pH = 7.4; 4 hr) ([1]; PBS pH = 7.4, 4 hr (Table 8)): >80 uM; Tmax [2]: 0.083 h; Human Clint [7, 12]: 40 µL/min/mg; Human Microsome (t1/2 min) [7, 12]: 0.583 h |
| CNS(=O)(=O)Nc1nccc(Cc2c(C)c3ccc(Oc4ncccn4)cc3oc2=O)c1F [Reference-2, reference compound] | – | – | – | – | – | – | – | – | – | – | – | – | – | – | 2.09 | – | – | – | – | – | microsomal CLint at 1 μM [7, 13]: < 15 µL/min/mg |
| Cn1cnc2c(F)c(Nc3ccc(Br)cc3Cl)c(C(=O)NOCCO)cc21 [Reference-1, Selumetinib] | – | – | – | – | – | – | – | – | – | – | – | – | – | – | 2.09 | – | – | – | – | – | A375 pERK:tERK ratio [10 nM; 2 hr] [5]: 0.59; pERK/tERK ratio normalized to DMSO ([5]; A375 (BRAF p.V600E), 100 nM): 0.199; solubility kinetic at 4 h ([1]; PBS buffer, aqueous buffer, kinetic from dmso stock, PBS pH = 7.4, 4 hr (Table 7), read-out: Kinetic Solubility (PBS pH = 7.4; 4 hr)): 36 µM (≈ 16.5 µg/mL); half-life at 1 μM [7, 13]: > 1.5 h |
| CNS(=O)(=O)Nc1cccc(Cc2c(CN3CCNCC3)c3ccc(OC(=O)N(C)C)cc3oc2=O)c1Cl [Compound 246, 3-(2-chloro-3-((N-methylsulfamoyl)amino)benzyl)-2-oxo-4-(piperazin-1-ylmethyl)-2H-chromen-7-yl dimethylcarbamate hydrochloride] | – | – | – | – | 1.25 | 1.25 | 3 | 29.7 | 10.5 | 22 | 4.16 | 6.99 | 1.68 | – | – | – | – | – | – | – | – |
| CNS(=O)(=O)Nc1cccc(Cc2c(CN(C)C)c3cc(F)c(OC(=O)N(C)C)cc3oc2=O)c1F [Compound 25] | – | – | – | – | – | – | – | – | – | – | – | – | – | 71 | – | >80 | 1426 | 1336 | 1037 | 1.1 | Tmax [2]: 0.083 h |
| CCN(C)Cc1c(Cc2cccc(NS(=O)(=O)NC)c2F)c(=O)oc2cc(OC(=O)N(C)C)c(F)cc12 [Compound 238] | 40 (≈ 21.5 µg/mL) | 416 | 857 | 0.083 | 3.97 | 3.97 | 0.943 | – | – | – | 14.2 | 13.5 | 0.956 | – | – | – | – | – | – | – | AUC(0-inf) ([2]; female, mouse): 434 ng·h/mL; half-life ([2]; female, mouse): 1 h |
| CNS(=O)(=O)Nc1cccc(Cc2c(CN3CCNCC3)c3cc(F)c(OC(=O)N(C)C)cc3oc2=O)c1F [Compound 134] | – | – | – | – | – | – | – | – | – | – | – | – | – | 26.9 | – | – | – | – | – | – | – |
| CCS(=O)(=O)Nc1cccc(Cc2c(CN(C)C)c3ccc(OC(=O)N(C)C)cc3oc2=O)c1F [Compound 120] | – | – | – | – | – | – | – | – | – | – | – | – | – | – | – | >80 | 673.2 | 669.3 | 1422.7 | 0.3 | Tmax [2]: 0.083 h |
| CCS(=O)(=O)Nc1cccc(Cc2c(CN3CCNCC3)c3cc(Cl)c(OC(=O)N(C)C)cc3oc2=O)c1Cl [Compound 257, 6-chloro-3-(2-chloro-3-(ethylsulfonamido)benzyl)-2-oxo-4-(piperazin-1-ylmethyl)-2H-chromen-7-yl dimethylcarbamate hydrochloride] | > 80 | 103 | 20.3 | 4 | 2.13 | 2.13 | 1.75 | 13.7 | 97.5 | 47.5 | 4.08 | 22.1 | 5.41 | – | – | – | – | – | – | – | – |
